In patent publication US8895585B2, “Nicotinamide derivative or salt thereof” (FUJIFILM Corporation, priority 2010, dated 2014):

What follows are compounds tested against T1, glutathione S-transferase (GST)-fused full-length human Syk protein (Homo sapiens, UniProt P43405) (assay: Syk enzyme assay). Conditions: Syk enzyme assay, Test Example 1; read-out: IC50 of Syk-inhibitory activity.
T1 construct: (GST)-fused full-length human Syk protein; GST (glutathione S-transferase); purchased Carna Biosciences
Type: biochemical
How it was run: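 IC50 values come from a time-resolved FRET readout (615 and 665 nm) of substrate phosphorylation, measured after an EDTA stop and 1 h antibody binding. The kinase reaction ran 40 min at room temperature with 27 μM ATP and 0.4 μM biotin-peptide, following a 15 min compound preincubation with baculovirus-made GST-full-length human Syk.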
Compound NC(=O)c1cc(F)c(N[C@@H]2CCCC[C@@H]2N)nc1Nc1ccnc(CO)c1 (relative stereo) [Example 004-194, 6-(cis-2-aminocyclohexylamino)-5-fluoro-2-((2-(hydroxymethyl)pyridin-4-yl)amino)nicotinamide] has an IC50 of 10 to 50 nM. NC(=O)c1cc(F)c(N[C@@H]2CCCC[C@@H]2N)nc1Nc1ccc2nc(OCCCN3CCCC3=O)ccc2c1 (relative stereo) [Example 004-200, 6-(cis-2-aminocyclohexylamino)-5-fluoro-2-((2-(3-(2-oxopyrrolidin-1-yl)propoxy)quinolin-6-yl)amino)nicotinamide] was tested, and the IC50 was < 10 nM. In the case of NC(=O)c1cc(F)c(N[C@@H]2CCCC[C@@H]2N)nc1Nc1ccc2nc(-n3nccn3)ccc2c1 (relative stereo) [Example 004-202, 2-((2-(2H-1,2,3-triazol-2-yl)quinolin-6-yl)amino)-6-(cis-2-aminocyclohexylamino)-5-fluoronicotinamide], the IC50 is reported as < 10 nM. With NC(=O)c1cc(F)c(N[C@@H]2CCCC[C@@H]2N)nc1Nc1ccc2nc(-n3cccn3)ccc2c1 (relative stereo) [Example 004-203, 2-((2-(1H-pyrazol-1-yl)quinolin-6-yl)amino)-6-(cis-2-aminocyclohexylamino)-5-fluoronicotinamide] the IC50 was < 10 nM. For NC(=O)c1cc(F)c(N[C@@H]2CCCC[C@@H]2N)nc1Nc1cncc(-c2cccc(F)c2F)c1 (relative stereo) [Example 004-204, 6-(cis-2-aminocyclohexylamino)-2-((5-(2,3-difluorophenyl)pyridin-3-yl)amino)-5-fluoronicotinamide], the IC50 was < 10 nM. For NC(=O)c1cc(F)c(N[C@@H]2CCCC[C@@H]2N)nc1Nc1cncc(-c2cc(F)ccc2F)c1 (relative stereo) [Example 004-205, 6-(cis-2-aminocyclohexylamino)-2-((5-(2,5-difluorophenyl)pyridin-3-yl)amino)-5-fluoronicotinamide], the IC50 was < 10 nM. NC(=O)c1cc(F)c(N[C@@H]2CCCC[C@@H]2N)nc1Nc1cncc(-c2cccc(Cl)c2F)c1 (relative stereo) [Example 004-206, 6-(cis-2-aminocyclohexylamino)-2-((5-(3-chloro-2-fluorophenyl)pyridin-3-yl)amino)-5-fluoronicotinamide] was tested, and the IC50 was < 10 nM. For NC(=O)c1cc(F)c(N[C@@H]2CCCC[C@@H]2N)nc1Nc1cncc(-c2cc(Cl)ccc2F)c1 (relative stereo) [Example 004-207, 6-(cis-2-aminocyclohexylamino)-2-((5-(5-chloro-2-fluorophenyl)pyridin-3-yl)amino)-5-fluoronicotinamide], the IC50 was < 10 nM. NC(=O)c1cc(F)c(N[C@@H]2CCCC[C@@H]2N)nc1Nc1ccc2nc(-n3cccn3)cnc2c1 (relative stereo) [Example 004-208, 2-((2-(1H-pyrazol-1-yl)quinoxalin-6-yl)amino)-6-(cis-2-aminocyclohexylamino)-5-fluoronicotinamide] was tested, and the IC50 was < 10 nM. NC(=O)c1cc(F)c(N[C@@H]2CCCC[C@@H]2N)nc1Nc1cnc2cc(-n3nccn3)ccc2c1 (relative stereo) [Example 004-209, 2-((7-(2H-1,2,3-triazol-2-yl)quinolin-3-yl)amino)-6-(cis-2-aminocyclohexylamino)-5-fluoronicotinamide] was tested, and the IC50 was < 10 nM. NC(=O)c1cc(F)c(N[C@@H]2CCCC[C@@H]2N)nc1Nc1cnc2cc(-n3cccn3)ccc2c1 (relative stereo) [Example 004-210, 2-((7-(1H-pyrazol-1-yl)quinolin-3-yl)amino)-6-(cis-2-aminocyclohexylamino)-5-fluoronicotinamide] was tested, and the IC50 was < 10 nM. Work on NC(=O)c1cc(F)c(N[C@@H]2CCCC[C@@H]2N)nc1Nc1cncc(-n2ccccc2=O)c1 (relative stereo) [Example 004-211, 6-(cis-2-aminocyclohexylamino)-5-fluoro-2-((2-oxo-2H-[1,3′-bipyridin]-5′-yl)amino)nicotinamide] yielded an IC50 of 100 to 1000 nM. In the case of NC(=O)c1cc(F)c(N[C@@H]2CCCC[C@@H]2N)nc1Nc1cnc(N2CCOCC2)c(F)c1 (relative stereo) [Example 004-216, 6-(cis-2-aminocyclohexylamino)-5-fluoro-2-((5-fluoro-6-morpholinopyridin-3-yl)amino)nicotinamide], the IC50 is reported as 10 to 50 nM. With NC(=O)c1cc(F)c(N[C@@H]2CCCC[C@@H]2N)nc1Nc1cncc(-c2cccc(N3CCOCC3)c2)c1 (relative stereo) [Example 004-221, 6-(cis-2-aminocyclohexylamino)-5-fluoro-2-((5-(3-morpholinophenyl)pyridin-3-yl)amino)nicotinamide] the IC50 was < 10 nM. With NC(=O)c1cc(F)c(N[C@@H]2CCCC[C@@H]2N)nc1Nc1cncc(-c2cccc(N3CCCC3=O)c2)c1 (relative stereo) [Example 004-225, 6-(cis-2-aminocyclohexylamino)-5-fluoro-2-((5-(3-(2-oxopyrrolidin-1-yl)phenyl)pyridin-3-yl)amino)nicotinamide] the IC50 was 10 to 50 nM. In the case of COc1cccc(-c2cncc(Nc3nc(N[C@@H]4CCCC[C@@H]4N)c(F)cc3C(N)=O)c2)n1 (relative stereo) [Example 004-230, 6-((cis-2-aminocyclohexyl)amino)-5-fluoro-2-((6-methoxy-[2,3′-bipyridin]-5′-yl)amino)nicotinamide], the IC50 is reported as 10 to 50 nM. With COc1ccc(-c2cncc(Nc3nc(N[C@@H]4CCCC[C@@H]4N)c(F)cc3C(N)=O)c2)cn1 (relative stereo) [Example 004-231, 6-((cis-2-aminocyclohexyl)amino)-5-fluoro-2-((6′-methoxy-[3,3′-bipyridin]-5-yl)amino)nicotinamide] the IC50 was 10 to 50 nM. With COc1cc(-c2cncc(Nc3nc(N[C@@H]4CCCC[C@@H]4N)c(F)cc3C(N)=O)c2)ccn1 (relative stereo) [Example 004-232, 6-((cis-2-aminocyclohexyl)amino)-5-fluoro-2-((2′-methoxy-[3,4′-bipyridine]-5-yl)amino)nicotinamide] the IC50 was < 10 nM. Cn1ccc2c(Nc3nc(N[C@@H]4CCCC[C@@H]4N)c(F)cc3C(N)=O)cccc21 (relative stereo) [Example 006-059, 6-(cis-2-aminocyclohexylamino)-5-fluoro-2-((1-methyl-1H-indol-4-yl)amino)nicotinamide] was tested, and the IC50 was < 10 nM. Compound Cn1cc2cccc(Nc3nc(N[C@@H]4CCCC[C@@H]4N)c(F)cc3C(N)=O)c2n1 (relative stereo) [Example 006-074, 6-(cis-2-aminocyclohexylamino)-5-fluoro-2-((2-methyl-2H-indazol-7-yl)amino)nicotinamide] has an IC50 of 100 to 1000 nM. With CN1CCc2ccc(Nc3nc(N[C@@H]4CCCC[C@@H]4N)c(F)cc3C(N)=O)cc2C1 (relative stereo) [Example 006-077, 6-(cis-2-aminocyclohexylamino)-5-fluoro-2-((2-methyl-1,2,3,4-tetrahydroisoquinolin-7-yl)amino)nicotinamide] the IC50 was 10 to 50 nM. For NC(=O)c1cc(F)c(N[C@@H]2CCCC[C@@H]2N)nc1Nc1ccc2cn[nH]c2c1 (relative stereo) [Example 006-086, 6-(cis-2-aminocyclohexylamino)-5-fluoro-2-((1H-indazol-6-yl)amino)nicotinamide], the IC50 was < 10 nM. For Cn1ccc2cc(-c3cncc(Nc4nc(N[C@@H]5CCCC[C@@H]5N)c(F)cc4C(N)=O)c3)ccc21 (relative stereo) [Example 006-091, 6-((cis-2-aminocyclohexyl)amino)-5-fluoro-2-((5-(1-methyl-1H-indol-5-yl)pyridin-3-yl)amino)nicotinamide], the IC50 was 10 to 50 nM. NC(=O)c1cc(F)c(N[C@@H]2CCCC[C@@H]2N)nc1Nc1cncc(-n2ccnc2)c1 (relative stereo) [Example 006-127, 2-((5-(1H-imidazol-1-yl)pyridin-3-yl)amino)-6-((cis-2-aminocyclohexyl)amino)-5-fluoronicotinamide] showed an IC50 of 10 to 50 nM. In the case of NC(=O)c1cc(F)c(N[C@@H]2CCCC[C@@H]2N)nc1Nc1ccnc(-c2cc[nH]c2)c1 (relative stereo) [Example 006-131, 2-((2-(1H-pyrrol-3-yl)pyridin-4-yl)amino)-6-((cis-2-aminocyclohexyl)amino)-5-fluoronicotinamide], the IC50 is reported as < 10 nM. Work on Cc1ncc(Nc2nc(N[C@@H]3CCCC[C@@H]3N)c(F)cc2C(N)=O)cc1-n1ccnn1 (relative stereo) [Example 006-152, 6-((cis-2-aminocyclohexyl)amino)-5-fluoro-2-((6-methyl-5-(1H-1,2,3-triazol-1-yl)pyridin-3-yl)amino)nicotinamide] yielded an IC50 of 10 to 50 nM. NC(=O)c1cc(F)c(N[C@@H]2CCCC[C@@H]2N)nc1Nc1ccc(Nc2ccccc2)nc1 (relative stereo) [Example 006-164, 6-((cis-2-aminocyclohexyl)amino)-5-fluoro-2-((6-(phenylamino)pyridin-3-yl)amino)nicotinamide] showed an IC50 of 10 to 50 nM. For Cn1cc(Nc2nc(N[C@@H]3CCCC[C@@H]3N)c(F)cc2C(N)=O)cc(-n2ccnn2)c1=O (relative stereo) [Example 006-428, 6-((cis-2-aminocyclohexyl)amino)-5-fluoro-2-((1-methyl-6-oxo-5-(1H-1,2,3-triazol-1-yl)-1,6-dihydropyridin-3-yl)amino)nicotinamide], the IC50 was 50 to 100 nM.

Same assay, conditions: read-out: Syk-inhibitory activity (IC50)
COc1ccc(Nc2nc(N[C@@H]3CCCC[C@@H]3N)c(F)cc2C(N)=O)c2cccnc12 (relative stereo) [Example 6-67, 6-(cis-2-aminocyclohexylamino)-5-fluoro-2-((8-methoxyquinolin-5-yl)amino)nicotinamide] was tested, and the IC50 was ≤ 1000 nM. For NC(=O)c1cc(F)c(N[C@@H]2CCCC[C@@H]2N)nc1Nc1cccc2nsnc12 (relative stereo) [Example 6-68, 6-(cis-2-aminocyclohexylamino)-2-(benzo[c][1,2,5]thiadiazol-4-ylamino)-5-fluoronicotinamide], the IC50 was ≤ 1000 nM.
